Test results from ChEMBL document CHEMBL1140971, “Synthesis of new 4-pyrrol-1-yl benzoic acid hydrazide analogs and some derived oxadiazole, triazole and pyrrole ring systems: a novel class of potential antibacterial and antitubercular agents” (2008).
Converted amounts (≈) assume the structure as drawn.

What was measured:
Type in all cases: functional
[1] = test system: Enterococcus faecalis; assay: Antibacterial activity against Streptococcus faecalis ATCC 14506 after 18 hrs by broth microdilution method; details: ATCC 14506, 18 h
[2] = test system: Klebsiella pneumoniae; assay: Antibacterial activity against Klebsiella pneumoniae ATCC 10031 after 18 hrs by broth microdilution method; details: ATCC 10031, 18 h
[3] = test system: Bacillus subtilis; assay: Antibacterial activity against Bacillus subtilis ATCC 60511 after 18 hrs by broth microdilution method; details: ATCC 60511, 18 h
[4] = test system: Pseudomonas aeruginosa; assay: Antibacterial activity against Pseudomonas aeruginosa ATCC 10145 after 18 hrs by broth microdilution method; details: ATCC 10145, 18 h
[5] = test system: Escherichia coli; assay: Antibacterial activity against Escherichia coli ATCC 10536 after 18 hrs by broth microdilution method; details: ATCC 10536, 18 h
[6] = test system: Staphylococcus aureus; assay: Antibacterial activity against Staphylococcus aureus ATCC 11632 after 18 hrs by broth microdilution method; details: ATCC 11632, 18 h
[7] = test system: Mycobacterium tuberculosis; assay: Antitubercular activity against Mycobacterium tuberculosis H37Rv after 21 days by broth dilution assay; details: 504 h

Compound | MIC [1] [µg/mL] | MIC [2] [µg/mL] | MIC [3] [µg/mL] | MIC [4] [µg/mL] | MIC [5] [µg/mL] | MIC [6] [µg/mL] | MIC [7] [µg/mL]
Sc1nnc(-c2ccc(-n3cccc3)cc2)o1 | 31.2 (≈ 128 µM) | 125 (≈ 514 µM) | 8 (≈ 32.9 µM) | 31.2 (≈ 128 µM) | 31.2 (≈ 128 µM) | 250 (≈ 1030 µM) | 16 (≈ 65.8 µM)
NNC(=O)c1ccc(-n2cccc2)cc1 | 31.2 (≈ 155 µM) | 125 (≈ 621 µM) | 8 (≈ 39.8 µM) | 62.5 (≈ 311 µM) | 125 (≈ 621 µM) | 250 (≈ 1240 µM) | 125 (≈ 621 µM)
CC(C)=NNC(=O)c1ccc(-n2cccc2)cc1 | 125 (≈ 518 µM) | 250 (≈ 1040 µM) | 62.5 (≈ 259 µM) | 62.5 (≈ 259 µM) | 125 (≈ 518 µM) | 250 (≈ 1040 µM) | 62.5 (≈ 259 µM)
Nn1c(-c2ccc(-n3cccc3)cc2)n[nH]c1=S | 250 (≈ 972 µM) | 125 (≈ 486 µM) | 125 (≈ 486 µM) | 125 (≈ 486 µM) | 500 (≈ 1940 µM) | 500 (≈ 1940 µM) | 62.5 (≈ 243 µM)
O=C(N/N=C/c1ccccc1)c1ccc(-n2cccc2)cc1 | 250 (≈ 864 µM) | 125 (≈ 432 µM) | 125 (≈ 432 µM) | 125 (≈ 432 µM) | 125 (≈ 432 µM) | 250 (≈ 864 µM) | 125 (≈ 432 µM)
O=C(N/N=C/c1ccc(O)cc1)c1ccc(-n2cccc2)cc1 | 125 (≈ 409 µM) | 125 (≈ 409 µM) | 62.5 (≈ 205 µM) | 62.5 (≈ 205 µM) | 62.5 (≈ 205 µM) | 125 (≈ 409 µM) | 31.2 (≈ 102 µM)
CC(=O)N1N=C(c2ccc(-n3cccc3)cc2)OC1c1c(Cl)cccc1Cl (stereo not drawn) | 62.5 (≈ 156 µM) | 62.5 (≈ 156 µM) | 31.2 (≈ 78.1 µM) | 31.2 (≈ 78.1 µM) | 62.5 (≈ 156 µM) | 62.5 (≈ 156 µM) | 31.2 (≈ 78.1 µM)
Cc1ccc(C)n1NC(=O)c1ccc(-n2cccc2)cc1 | 125 (≈ 447 µM) | 250 (≈ 895 µM) | 62.5 (≈ 224 µM) | 62.5 (≈ 224 µM) | 125 (≈ 447 µM) | 250 (≈ 895 µM) | 31.2 (≈ 112 µM)
O=C(NN=C(c1ccccc1)c1ccccc1)c1ccc(-n2cccc2)cc1 | 250 (≈ 684 µM) | 125 (≈ 342 µM) | 62.5 (≈ 171 µM) | 62.5 (≈ 171 µM) | 125 (≈ 342 µM) | 500 (≈ 1370 µM) | 62.5 (≈ 171 µM)
O=C(N/N=C/c1cccc([N+](=O)[O-])c1)c1ccc(-n2cccc2)cc1 | 500 (≈ 1500 µM) | 500 (≈ 1500 µM) | 250 (≈ 748 µM) | 62.5 (≈ 187 µM) | 500 (≈ 1500 µM) | 500 (≈ 1500 µM) | 62.5 (≈ 187 µM)
CC(=O)NNC(=O)c1ccc(-n2cccc2)cc1 | 250 (≈ 1030 µM) | 125 (≈ 514 µM) | 62.5 (≈ 257 µM) | 62.5 (≈ 257 µM) | 500 (≈ 2060 µM) | 500 (≈ 2060 µM) | 62.5 (≈ 257 µM)
CN(C)c1ccc(/C=N/NC(=O)c2ccc(-n3cccc3)cc2)cc1 | 125 (≈ 376 µM) | 125 (≈ 376 µM) | 125 (≈ 376 µM) | 125 (≈ 376 µM) | 250 (≈ 752 µM) | 250 (≈ 752 µM) | 62.5 (≈ 188 µM)
C/C(=N\NC(=O)c1ccc(-n2cccc2)cc1)c1ccccc1 | 125 (≈ 412 µM) | 125 (≈ 412 µM) | 62.5 (≈ 206 µM) | 62.5 (≈ 206 µM) | 125 (≈ 412 µM) | 250 (≈ 824 µM) | 62.5 (≈ 206 µM)
O=C(N/N=C/c1c(Cl)cccc1Cl)c1ccc(-n2cccc2)cc1 | 125 (≈ 349 µM) | 125 (≈ 349 µM) | 62.5 (≈ 174 µM) | 62.5 (≈ 174 µM) | 62.5 (≈ 174 µM) | 125 (≈ 349 µM) | 31.2 (≈ 87.2 µM)
CC(=O)N1N=C(c2ccc(-n3cccc3)cc2)OC1c1ccccc1 (stereo not drawn) | 125 (≈ 377 µM) | 62.5 (≈ 189 µM) | 62.5 (≈ 189 µM) | 62.5 (≈ 189 µM) | 125 (≈ 377 µM) | 250 (≈ 754 µM) | 31.2 (≈ 94.3 µM)
O=C(O)c1cn(C2CC2)c2cc(N3CCNCC3)c(F)cc2c1=O [CIPROFLOXACIN] | < 5 | ≤ 1 | ≤ 1 | > 5 | ≤ 1 | < 5 | –
NNC(=O)c1ccncc1 [ISONIAZID] | – | – | – | – | – | – | 0.25 (≈ 1.82 µM)
CCn1cc(C(=O)O)c(=O)c2cc(F)c(N3CCNCC3)cc21 [NORFLOXACIN] | < 5 | ≤ 1 | ≤ 1 | > 5 | ≤ 1 | < 5 | –
